Assay results taken from ChEMBL document CHEMBL3991601, “The target landscape of clinical kinase drugs” (Science, 2017).
Activity calls are given as the source filed them. Rule as the data show it, for most assays here: actives have a measured Kd and inactives only a lower limit.

What was measured:
[1] = target: T1, Aurora kinase A (Homo sapiens, UniProt O14965)
T1 sequence (O14965 whole entry): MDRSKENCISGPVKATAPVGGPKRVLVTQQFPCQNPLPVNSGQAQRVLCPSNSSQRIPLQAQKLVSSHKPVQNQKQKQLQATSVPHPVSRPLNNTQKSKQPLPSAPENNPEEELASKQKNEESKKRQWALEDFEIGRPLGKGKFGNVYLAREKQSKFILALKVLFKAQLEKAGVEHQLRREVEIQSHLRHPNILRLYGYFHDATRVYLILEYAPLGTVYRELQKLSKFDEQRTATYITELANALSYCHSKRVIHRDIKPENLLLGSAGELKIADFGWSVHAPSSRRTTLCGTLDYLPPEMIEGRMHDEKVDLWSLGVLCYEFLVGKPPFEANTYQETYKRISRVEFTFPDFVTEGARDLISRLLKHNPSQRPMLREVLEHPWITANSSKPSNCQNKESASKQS

[2] = target: Mitogen-activated protein kinase kinase kinase kinase 1 (Homo sapiens, UniProt Q92918)
Chain of Mitogen-activated protein kinase kinase kinase kinase 1 (Q92918 whole entry): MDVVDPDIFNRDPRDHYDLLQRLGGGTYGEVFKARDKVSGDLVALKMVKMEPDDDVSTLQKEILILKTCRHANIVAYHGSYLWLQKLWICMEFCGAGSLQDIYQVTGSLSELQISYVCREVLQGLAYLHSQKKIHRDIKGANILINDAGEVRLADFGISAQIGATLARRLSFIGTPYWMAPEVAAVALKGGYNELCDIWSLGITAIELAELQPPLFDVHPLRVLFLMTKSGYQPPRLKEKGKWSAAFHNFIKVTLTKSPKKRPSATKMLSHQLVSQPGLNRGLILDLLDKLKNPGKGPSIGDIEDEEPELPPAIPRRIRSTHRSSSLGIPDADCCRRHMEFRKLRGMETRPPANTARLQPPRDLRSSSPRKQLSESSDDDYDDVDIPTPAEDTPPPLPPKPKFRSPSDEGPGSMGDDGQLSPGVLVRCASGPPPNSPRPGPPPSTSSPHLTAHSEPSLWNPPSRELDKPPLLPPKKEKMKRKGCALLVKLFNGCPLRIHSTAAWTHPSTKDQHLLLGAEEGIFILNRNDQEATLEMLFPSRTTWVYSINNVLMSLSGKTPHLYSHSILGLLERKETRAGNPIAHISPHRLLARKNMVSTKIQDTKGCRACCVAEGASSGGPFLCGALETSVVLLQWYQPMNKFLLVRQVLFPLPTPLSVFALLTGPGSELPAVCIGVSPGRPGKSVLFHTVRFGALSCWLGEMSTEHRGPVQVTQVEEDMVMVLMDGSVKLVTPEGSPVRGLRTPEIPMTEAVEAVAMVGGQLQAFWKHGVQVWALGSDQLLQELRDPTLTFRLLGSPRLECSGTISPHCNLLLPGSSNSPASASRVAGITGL

[3] = target: Serine/threonine-protein kinase N2 (Homo sapiens, UniProt Q16513)
Chain of Serine/threonine-protein kinase N2 (Q16513 whole entry): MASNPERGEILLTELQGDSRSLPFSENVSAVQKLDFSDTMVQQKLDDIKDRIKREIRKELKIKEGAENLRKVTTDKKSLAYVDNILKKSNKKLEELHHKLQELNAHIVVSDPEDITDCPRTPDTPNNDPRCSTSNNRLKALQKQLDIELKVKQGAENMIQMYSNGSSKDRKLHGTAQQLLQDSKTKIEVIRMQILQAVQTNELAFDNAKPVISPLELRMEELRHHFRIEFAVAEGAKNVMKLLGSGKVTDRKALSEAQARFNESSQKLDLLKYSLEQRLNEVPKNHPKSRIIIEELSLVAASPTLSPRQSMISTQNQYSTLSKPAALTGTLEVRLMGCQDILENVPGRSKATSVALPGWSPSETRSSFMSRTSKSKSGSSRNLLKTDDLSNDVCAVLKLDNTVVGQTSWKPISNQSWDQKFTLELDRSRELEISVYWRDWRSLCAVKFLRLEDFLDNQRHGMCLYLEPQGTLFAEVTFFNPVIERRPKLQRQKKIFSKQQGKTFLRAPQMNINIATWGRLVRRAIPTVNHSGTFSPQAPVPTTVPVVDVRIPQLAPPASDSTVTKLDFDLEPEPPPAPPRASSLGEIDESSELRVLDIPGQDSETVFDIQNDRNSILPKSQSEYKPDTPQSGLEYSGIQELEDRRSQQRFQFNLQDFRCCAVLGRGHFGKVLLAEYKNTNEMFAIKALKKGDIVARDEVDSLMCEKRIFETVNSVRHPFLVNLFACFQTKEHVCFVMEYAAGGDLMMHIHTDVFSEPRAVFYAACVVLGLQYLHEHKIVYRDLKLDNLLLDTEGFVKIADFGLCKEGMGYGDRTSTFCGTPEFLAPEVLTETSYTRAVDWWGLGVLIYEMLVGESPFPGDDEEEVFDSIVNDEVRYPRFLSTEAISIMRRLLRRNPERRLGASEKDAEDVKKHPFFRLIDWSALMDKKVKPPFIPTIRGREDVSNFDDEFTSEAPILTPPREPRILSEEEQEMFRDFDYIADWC

[4] = target: Calcium/calmodulin-dependent protein kinase type II subunit gamma (Homo sapiens, UniProt Q13555)
Chain of Calcium/calmodulin-dependent protein kinase type II subunit gamma (Q13555 whole entry): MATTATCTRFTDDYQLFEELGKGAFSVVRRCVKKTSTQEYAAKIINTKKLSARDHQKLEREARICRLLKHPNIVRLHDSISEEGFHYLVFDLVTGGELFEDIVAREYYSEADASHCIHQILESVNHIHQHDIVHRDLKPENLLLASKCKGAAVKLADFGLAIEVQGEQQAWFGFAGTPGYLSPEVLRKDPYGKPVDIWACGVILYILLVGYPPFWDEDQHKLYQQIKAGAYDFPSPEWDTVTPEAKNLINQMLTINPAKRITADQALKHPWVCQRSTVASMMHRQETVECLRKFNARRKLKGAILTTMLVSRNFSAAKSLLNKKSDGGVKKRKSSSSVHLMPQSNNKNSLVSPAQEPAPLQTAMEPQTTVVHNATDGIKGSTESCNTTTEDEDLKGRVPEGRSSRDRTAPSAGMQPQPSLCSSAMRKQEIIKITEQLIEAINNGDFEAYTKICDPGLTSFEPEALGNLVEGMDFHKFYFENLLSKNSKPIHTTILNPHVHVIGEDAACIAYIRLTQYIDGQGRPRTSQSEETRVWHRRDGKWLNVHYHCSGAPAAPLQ

[5] = target: T2, Serine/threonine-protein kinase STK11 (Homo sapiens, UniProt Q15831)
T2 sequence (Q15831 whole entry): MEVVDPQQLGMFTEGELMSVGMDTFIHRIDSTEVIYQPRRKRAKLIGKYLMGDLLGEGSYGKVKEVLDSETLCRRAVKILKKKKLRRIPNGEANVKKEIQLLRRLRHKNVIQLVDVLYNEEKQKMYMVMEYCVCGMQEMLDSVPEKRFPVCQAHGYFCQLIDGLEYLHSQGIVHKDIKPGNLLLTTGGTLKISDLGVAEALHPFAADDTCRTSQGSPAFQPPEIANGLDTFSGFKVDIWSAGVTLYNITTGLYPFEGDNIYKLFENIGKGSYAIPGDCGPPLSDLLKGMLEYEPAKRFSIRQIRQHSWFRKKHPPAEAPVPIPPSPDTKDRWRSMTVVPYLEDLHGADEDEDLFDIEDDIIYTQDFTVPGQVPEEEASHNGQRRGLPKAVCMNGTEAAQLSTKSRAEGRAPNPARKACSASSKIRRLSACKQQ

[6] = target: T3, Mitogen-activated protein kinase kinase kinase 5 (Homo sapiens, UniProt Q99683)
T3 sequence (Q99683 whole entry): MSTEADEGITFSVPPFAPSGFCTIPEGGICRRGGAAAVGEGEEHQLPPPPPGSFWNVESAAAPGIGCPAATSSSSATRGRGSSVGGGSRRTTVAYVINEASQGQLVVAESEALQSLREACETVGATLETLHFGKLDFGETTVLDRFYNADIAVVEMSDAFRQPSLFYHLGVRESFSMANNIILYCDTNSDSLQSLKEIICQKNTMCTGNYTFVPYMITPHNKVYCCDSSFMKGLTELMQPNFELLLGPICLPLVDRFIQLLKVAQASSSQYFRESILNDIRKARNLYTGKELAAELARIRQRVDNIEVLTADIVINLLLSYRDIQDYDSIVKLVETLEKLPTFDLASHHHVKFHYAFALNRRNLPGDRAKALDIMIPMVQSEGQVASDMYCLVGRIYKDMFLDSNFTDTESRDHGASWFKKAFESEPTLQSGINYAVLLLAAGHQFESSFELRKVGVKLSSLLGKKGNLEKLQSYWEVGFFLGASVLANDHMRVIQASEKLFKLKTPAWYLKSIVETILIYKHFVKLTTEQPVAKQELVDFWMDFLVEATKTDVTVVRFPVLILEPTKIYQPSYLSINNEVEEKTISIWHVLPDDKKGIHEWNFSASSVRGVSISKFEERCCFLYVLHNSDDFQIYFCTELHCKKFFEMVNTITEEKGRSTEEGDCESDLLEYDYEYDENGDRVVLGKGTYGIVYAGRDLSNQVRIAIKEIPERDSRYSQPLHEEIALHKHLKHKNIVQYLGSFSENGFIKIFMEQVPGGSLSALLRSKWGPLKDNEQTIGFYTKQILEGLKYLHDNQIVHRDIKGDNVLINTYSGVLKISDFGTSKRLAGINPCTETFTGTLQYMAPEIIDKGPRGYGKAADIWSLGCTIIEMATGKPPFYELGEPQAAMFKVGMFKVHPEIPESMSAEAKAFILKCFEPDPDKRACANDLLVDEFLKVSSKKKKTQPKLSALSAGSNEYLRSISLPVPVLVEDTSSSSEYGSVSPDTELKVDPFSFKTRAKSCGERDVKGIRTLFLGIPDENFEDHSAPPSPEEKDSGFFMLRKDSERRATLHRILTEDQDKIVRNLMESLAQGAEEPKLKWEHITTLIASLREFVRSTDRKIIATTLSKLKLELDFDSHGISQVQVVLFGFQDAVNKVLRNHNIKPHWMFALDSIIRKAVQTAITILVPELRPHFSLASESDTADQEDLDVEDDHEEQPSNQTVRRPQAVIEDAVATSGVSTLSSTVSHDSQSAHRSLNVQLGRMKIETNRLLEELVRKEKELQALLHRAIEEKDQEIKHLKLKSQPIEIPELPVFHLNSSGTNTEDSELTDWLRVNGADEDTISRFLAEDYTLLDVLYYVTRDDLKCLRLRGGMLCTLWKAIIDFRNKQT

[7] = target: T4, Activin receptor type-1 (Homo sapiens, UniProt Q04771)
T4 sequence (Q04771 whole entry): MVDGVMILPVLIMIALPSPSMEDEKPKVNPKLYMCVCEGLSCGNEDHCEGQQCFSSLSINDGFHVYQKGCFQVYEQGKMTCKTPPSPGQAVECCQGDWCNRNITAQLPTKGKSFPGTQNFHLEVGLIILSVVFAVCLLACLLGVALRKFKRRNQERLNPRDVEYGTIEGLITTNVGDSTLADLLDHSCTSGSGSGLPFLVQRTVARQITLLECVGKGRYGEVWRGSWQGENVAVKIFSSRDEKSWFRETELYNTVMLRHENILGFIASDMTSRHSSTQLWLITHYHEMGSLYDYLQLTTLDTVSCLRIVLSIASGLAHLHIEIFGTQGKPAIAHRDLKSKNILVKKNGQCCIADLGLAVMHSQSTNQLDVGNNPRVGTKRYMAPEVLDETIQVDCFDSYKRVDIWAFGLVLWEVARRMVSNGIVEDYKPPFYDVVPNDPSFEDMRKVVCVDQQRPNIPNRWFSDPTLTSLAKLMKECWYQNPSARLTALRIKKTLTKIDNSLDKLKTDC

[8] = target: Dual specificity tyrosine-phosphorylation-regulated kinase 1A (Homo sapiens, UniProt Q13627)
[9] = target: Adenylate kinase 2, mitochondrial (Homo sapiens, UniProt P54819)
Also: in the data inactive means no Kd found up to 30 µM.

Kd [1]	Kd [2]	Kd [3]	Kd [4]	Kd [5]	Kd [6]	Kd [7]	Kd [8]	Kd [9]	Structure (SMILES)
> 30 µM (inactive)	> 30 µM (inactive)	> 30 µM (inactive)	1.41 µM (active)	> 30 µM (inactive)	> 30 µM (inactive)	> 30 µM (inactive)	> 30 µM (inactive)	> 30 µM (inactive)	COc1cc(N2CCC(N3CCN(C)CC3)CC2)ccc1Nc1ncnc(Nc2ccccc2S(=O)(=O)C(C)C)n1 [ASP-3026]
> 30 µM (inactive)	> 30 µM (inactive)	> 30 µM (inactive)	> 30 µM (inactive)	> 30 µM (inactive)	> 30 µM (inactive)	> 30 µM (inactive)	> 30 µM (inactive)	> 30 µM (inactive)	CNC(=O)c1ccc(-c2cnc3ncc(Cc4ccc5ncccc5c4)n3n2)cc1F [CAPMATINIB]
> 30 µM (inactive)	> 30 µM (inactive)	> 30 µM (inactive)	> 30 µM (inactive)	> 30 µM (inactive)	> 30 µM (inactive)	> 30 µM (inactive)	> 30 µM (inactive)	> 30 µM (inactive)	CNC(=O)CN1CCC(Oc2cc3c(Nc4cccc(Cl)c4F)ncnc3cc2OC)CC1 [SAPITINIB]
> 30 µM (inactive)	> 30 µM (inactive)	> 30 µM (inactive)	> 30 µM (inactive)	> 30 µM (inactive)	> 30 µM (inactive)	> 30 µM (inactive)	> 30 µM (inactive)	> 30 µM (inactive)	Cc1ccc(S(=O)(=O)Nc2nc3ccccc3nc2Nc2ccc3nsnc3c2)cc1
> 30 µM (inactive)	> 30 µM (inactive)	> 30 µM (inactive)	> 30 µM (inactive)	> 30 µM (inactive)	> 30 µM (inactive)	> 30 µM (inactive)	> 30 µM (inactive)	> 30 µM (inactive)	N[C@@H]1CCCN(c2c(/C=C3\SC(=O)NC3=O)cccc2-c2ccccc2)C1
> 30 µM (inactive)	> 30 µM (inactive)	> 30 µM (inactive)	> 30 µM (inactive)	> 30 µM (inactive)	> 30 µM (inactive)	> 30 µM (inactive)	> 30 µM (inactive)	> 30 µM (inactive)	CNC(=O)c1ccc(C)c(-n2c(C)cc(OCc3ccc(F)cc3F)c(Br)c2=O)c1 [PH-797804]
> 30 µM (inactive)	> 30 µM (inactive)	> 30 µM (inactive)	> 30 µM (inactive)	> 30 µM (inactive)	> 30 µM (inactive)	> 30 µM (inactive)	> 30 µM (inactive)	> 30 µM (inactive)	CNC(=O)c1cc(Oc2ccc(NC(=O)Nc3ccc(Cl)c(C(F)(F)F)c3)c(F)c2)ccn1 [REGORAFENIB]
> 30 µM (inactive)	> 30 µM (inactive)	> 30 µM (inactive)	> 30 µM (inactive)	> 30 µM (inactive)	> 30 µM (inactive)	> 30 µM (inactive)	> 30 µM (inactive)	> 30 µM (inactive)	COc1cc2nccc(Oc3ccc(NC(=O)Nc4cc(C)on4)c(Cl)c3)c2cc1OC [TIVOZANIB]
> 30 µM (inactive)	> 30 µM (inactive)	> 30 µM (inactive)	> 30 µM (inactive)	> 30 µM (inactive)	> 30 µM (inactive)	> 30 µM (inactive)	> 30 µM (inactive)	> 30 µM (inactive)	Cc1ccc(NC(=O)c2ccc(CN3CC[C@H](N(C)C)C3)c(C(F)(F)F)c2)cc1Nc1nccc(-c2cncnc2)n1 [BAFETINIB]
> 30 µM (inactive)	> 30 µM (inactive)	> 30 µM (inactive)	> 30 µM (inactive)	> 30 µM (inactive)	> 30 µM (inactive)	> 30 µM (inactive)	> 30 µM (inactive)	> 30 µM (inactive)	Cn1cc(-c2ccc(F)c(C(F)(F)F)c2)nc1C1CCN(c2ncnc3[nH]ncc23)CC1 [LY-2584702]
> 30 µM (inactive)	> 30 µM (inactive)	> 30 µM (inactive)	> 30 µM (inactive)	> 30 µM (inactive)	> 30 µM (inactive)	> 30 µM (inactive)	> 30 µM (inactive)	> 30 µM (inactive)	O=C(Nc1ccc(-c2ccnc(Nc3ccc(N4CCOCC4)cc3)n2)cc1)C1CCCN1 (stereo unspecified) [XL-019]
> 30 µM (inactive)	> 30 µM (inactive)	> 30 µM (inactive)	> 30 µM (inactive)	> 30 µM (inactive)	> 30 µM (inactive)	> 30 µM (inactive)	> 30 µM (inactive)	> 30 µM (inactive)	COc1cc(OC)c(/C=C/S(=O)(=O)Cc2ccc(OC)c(NCC(=O)O)c2)c(OC)c1 [RIGOSERTIB]

Structure (SMILES)	Kd [1]	Kd [2]	Kd [3]	Kd [4]	Kd [5]	Kd [6]	Kd [7]	Kd [8]	Kd [9]
CN1CCC(COc2cnc(-c3cccc(Cn4nc(-c5cccc(C#N)c5)ccc4=O)c3)nc2)CC1 [TEPOTINIB]	> 30 µM (inactive)	> 30 µM (inactive)	> 30 µM (inactive)	> 30 µM (inactive)	> 30 µM (inactive)	> 30 µM (inactive)	> 30 µM (inactive)	> 30 µM (inactive)	> 30 µM (inactive)
O=C(c1ccc(F)c(F)c1Nc1ccc(I)cc1F)N1CC(O)([C@@H]2CCCCN2)C1 [COBIMETINIB]	> 30 µM (inactive)	> 30 µM (inactive)	> 30 µM (inactive)	> 30 µM (inactive)	> 30 µM (inactive)	> 30 µM (inactive)	> 30 µM (inactive)	> 30 µM (inactive)	> 30 µM (inactive)
